Where two headings read alike, the source gives them in different places.
Key:
BromoTag-Brd2 = assay: Dose–response degradation assay (western blot, 6 h) in heterozygous BromoTag-Brd2 HEK293 cells; assay type: cell-based, human; settings: for DC50 / Dmax of BromoTag-Brd2 degradation / hook effect: 6 h; for DC50: read-out: DC50 of BromoTag-Brd2 degradation; for Dmax (%) (Ab: Brd2) / Dmax (%) (Ab: Brd4^BD2 L387A) / pDC50 (Ab: Brd2) / pDC50 (Ab: Brd4^BD2 L387A): BromoTagged-Brd2, 6 h; for pDC50 (Ab: Brd2) / pDC50 (Ab: Brd4^BD2 L387A): mean ±S.E of three independent experiments; for hook effect: higher concentrations of 1–10 μM; for pDmax (%) (Ab: Brd4BD2 L387A) / pDmax (%) (Ab:Brd2): supplementary CSV
Experimental: All dose–response degradation assays were performed on the genotype-verified heterozygous BromoTag-Brd2 HEK293 cell line. Heterozygous BromoTag-Brd2 HEK293 cells were plated at a density of 5 × 10^5 cells per well of a six-well healthy plate a day before initiation of the titration experiment. PROTAC compounds were dissolved in DMSO at a concentration of 10 mM; from these stock concentrations, PROTAC compounds were diluted to appropriate concentrations using DMSO in the range of 10 μM to 1 nM. […] Control compounds such as MZ1 and cis-MZ1 were similarly dissolved in DMSO to an appropriate concentration. […] The cells were washed twice with PBS before being harvested.
The membranes were blocked for 1 h prior to incubation with the primary antibodies using 5% Milk TBST. […] Following overnight incubation with the primary antibodies at 4 °C, the membranes were incubated with secondary antibodies (anti-rabbit, Abcam AB216773, 1:5000 or anti-mouse, Abcam AB216774, 1:5000) and hFABTM rhodamine anti-tubulin antibody (Biorad, 12004165, 1:10,000) for 1 h and then imaged with a Bio-Rad imager (LI-COR Biosciences). All western blots were analyzed for band intensities using Image Lab from Bio-Rad (LI-COR, Biosciences). The data extracted from these blots were then plotted and analyzed using Prism (v. 8.2.0, GraphPad).

[1] = test system: untagged Brd2, Brd3, Brd4; assay: Off-target degradation of endogenous BET proteins (western blot) in heterozygous BromoTag-Brd2 HEK293 cells; assay type: cell-based, human
Excerpt: To establish the BromoTag platform and support the degrader structure–activity relationships (SARs) to identify the best compound, we sought a practical and simple system that enables us to best optimize not only the degradation efficiency but also the selectivity profile of our degraders. To this end, the endogenous BET family protein Brd2 was chosen as a model target due to the availability of a well-established antibody for Brd2 detection, and the expression of a single protein isoform detected as a single band in the western blot.[24] Because Brd2 contains endogenous bromodomains and is degraded by 1 and other BET PROTACs, we reasoned that a heterozygous knock-in cell line allows us to monitor simultaneously both on-target degradation (BromoTagged-Brd2) and off-target degradation (untagged Brd2) using the same antibody. Together with the potential off-target degradation of the other BET proteins Brd3 and Brd4, this system thus enables us to best monitor protein degradation selectivity. We therefore decided to add the BromoTag at the N-terminus of the endogenous Brd2 gene locus using CRISPR knock-in methodologies, thereby yielding a chimeric protein bearing three bromodomains (the exogenous BromoTag, in addition to the endogenous Brd2^BD1 and Brd2^BD2). Hereafter, we refer to on-target activity as the degradation of BromoTag-Brd2 and off-target activity as any degradation of either untagged Brd2 or endogenous Brd3 or Brd4.
All dose–response degradation assays were performed on the genotype-verified heterozygous BromoTag-Brd2 HEK293 cell line. Heterozygous BromoTag-Brd2 HEK293 cells were plated at a density of 5 × 10^5 cells per well of a six-well healthy plate a day before initiation of the titration experiment. PROTAC compounds were dissolved in DMSO at a concentration of 10 mM; from these stock concentrations, PROTAC compounds were diluted to appropriate concentrations using DMSO in the range of 10 μM to 1 nM. The compounds were then added to 2 mL of DMEM (Invitrogen, Carlsbad, CA, USA) supplemented with 10% (v/v) FBS (Thermo Fisher, Waltham, MA, USA) and 1% (v/v) penicillin/streptomycin (pen/strep) (#15140122, Thermo Fisher, Waltham, MA, USA) and added to the cells while initiating the experiment. Control compounds such as MZ1 and cis-MZ1 were similarly dissolved in DMSO to an appropriate concentration. All titration experiments were performed for a total of 6 h prior to being harvested and were kept at 37 °C, 5% CO2, and 95% humidity once treatment was applied until right before harvesting. The cells were washed twice with PBS before being harvested.
All cells were harvested on ice with RIPA lysis and extraction buffer (Thermo Fisher Scientific, 89901) supplemented with protease inhibitor cocktail (Merck, 11697498001) and Benzonase Nuclease (Sigma, E1014) before being stored at −20 °C prior to use. Total protein quantity was determined using the BCA protein assay (#23225, Pierce, Rockford, Illinois). The protein concentration was determined using the BCA assay (Thermo Fisher Scientific, 23225). The samples were then prepared and loaded onto NuPAGE 4–12% bis–tris Midi gels (Thermo Fisher Scientific, WG1403A), followed by the transfer of proteins onto nitrocellulose membranes (EMD Millipore). The membranes were blocked for 1 h prior to incubation with the primary antibodies using 5% Milk TBST. The membranes were probed for Brd2 (Abcam, Ab139690, 1:1000), Brd3 (Abcam, Ab50818, 1:4000), Brd4 (Abcam, Ab128874, 1:1000), or our polyclonal Brd4^BD2 L387A antibody. Following overnight incubation with the primary antibodies at 4 °C, the membranes were incubated with secondary antibodies (anti-rabbit, Abcam AB216773, 1:5000 or anti-mouse, Abcam AB216774, 1:5000) and hFABTM rhodamine anti-tubulin antibody (Biorad, 12004165, 1:10,000) for 1 h and then imaged with a Bio-Rad imager (LI-COR Biosciences). All western blots were analyzed for band intensities using Image Lab from Bio-Rad (LI-COR, Biosciences). […]

[2] = 1 nM to 10 μM, 6 h, diastereomeric mixtures
[3] = diastereomeric mixtures, range over the two antibodies

Row | Structure (SMILES) | DC50 (BromoTag-Brd2; diastereomeric mixture) | Dmax of BromoTag-Brd2 degradation (BromoTag-Brd2; diastereomeric mixtures) | Dmax (%) (Ab: Brd2) (BromoTag-Brd2; diastereomeric mixtures) | Dmax (%) (Ab: Brd4^BD2 L387A) (BromoTag-Brd2; diastereomeric mixtures) | pDC50 (Ab: Brd2) (BromoTag-Brd2; diastereomeric mixtures) | pDC50 (Ab: Brd4^BD2 L387A) (BromoTag-Brd2; diastereomeric mixtures) | hook effect (BromoTag-Brd2; diastereomeric mixtures) | pDmax (%) (Ab: Brd4BD2 L387A) (BromoTag-Brd2) | pDmax (%) (Ab:Brd2) (BromoTag-Brd2) | off-target degradation of untagged Brd2 or the other endogenous BET proteins [1, 2] | DC50 (BromoTag-Brd2; [3]) | off-target degradation of untagged Brd2 or the other endogenous BET proteins [1]
1 | CCC(C(=O)NCCOCCCOCC(=O)N[C@H](C(=O)N1C[C@H](O)C[C@H]1C(=O)N[C@@H](C)c1ccc(-c2scnc2C)cc1)C(C)(C)C)C1N=C(c2ccc(Cl)cc2)c2c(sc(C)c2C)-n2c(C)nnc21 (relative stereo) [ET-ARV-771 (21), (2S,4R)-1-((2S,15R*)-2-(tert-Butyl)-15-((S*)-4-(4-chlorophenyl)-2,3,9-trimethyl-6H-thieno[3,2-f][1,2,4]triazolo[4,3-a][1,4]diazepin-6-yl)-4,14-dioxo-6,10-dioxa-3,13-diazaheptadecanoyl)-4-hydroxy-N-((S)-1-(4-(4-methylthiazol-5-yl)phenyl)ethyl)pyrrolidine-2-carboxamide] | ~1 µM | < 70% | 51% | 69% | 5.7 ± 1.8 | 6.1 ± 0.3 | strong hook effect | 69% | 51% |  |  | 
2 | Cc1ncsc1-c1ccc(CNC(=O)[C@@H]2C[C@@H](O)CN2C(=O)[C@@H](NC(=O)COCCOCCOCCNC(=O)C(C)C2N=C(c3ccc(Cl)cc3)c3c(sc(C)c3C)-n3c(C)nnc32)C(C)(C)C)cc1 (relative stereo) [ME-MZ1 (18), (2S,4R)-1-((2S,17R*)-2-(tert-Butyl)-17-((S*)-4-(4-chlorophenyl)-2,3,9-trimethyl-6H-thieno[3,2-f][1,2,4]triazolo[4,3-a][1,4]diazepin-6-yl)-4,16-dioxo-6,9,12-trioxa-3,15-diazaoctadecanoyl)-4-hydroxy-N-(4-(4-methylthiazol-5-yl)benzyl)pyrrolidine-2-carboxamide] |  |  |  |  |  |  |  | 90% | 92% | induced undesired off-target degradation |  | 
3 | Cc1ncsc1-c1ccc([C@H](C)NC(=O)[C@@H]2C[C@@H](O)CN2C(=O)[C@@H](NC(=O)COCCCOCCNC(=O)C(C)C2N=C(c3ccc(Cl)cc3)c3c(sc(C)c3C)-n3c(C)nnc32)C(C)(C)C)cc1 (relative stereo) [ME-ARV-771 (20), (2S,4R)-1-((2S,15R*)-2-(tert-Butyl)-15-((S*)-4-(4-chlorophenyl)-2,3,9-trimethyl-6H-thieno[3,2-f][1,2,4]triazolo[4,3-a][1,4]diazepin-6-yl)-4,14-dioxo-6,10-dioxa-3,13-diazahexadecanoyl)-4-hydroxy-N-((S)-1-(4-(4-methylthiazol-5-yl)phenyl)ethyl)pyrrolidine-2-carboxamide] |  |  | 60% | 70% | 6.4 ± 0.6 | 6.5 ± 0.4 |  | 70% | 60% | induced undesired off-target degradation |  | 
4 | Cc1ncsc1-c1ccc(CNC(=O)[C@@H]2C[C@@H](O)CN2C(=O)[C@@H](NC(=O)COCCOCCOCCOC(=O)[C@H](C)[C@@H]2N=C(c3ccc(Cl)cc3)c3c(sc(C)c3C)-n3c(C)nnc32)C(C)(C)C)cc1 (relative stereo) [ME-OMZ1 (22), (S)-13-((2S,4R)-4-Hydroxy-2-((4-(4-methylthiazol-5-yl)benzyl)carbamoyl)pyrrolidine-1-carbonyl)-14,14-dimethyl-11-oxo-3,6,9-trioxa-12-azapentadecyl (R*)-2-((S*)-4-(4-chlorophenyl)-2,3,9-trimethyl-6H-thieno[3,2-f][1,2,4]triazolo[4,3-a][1,4]diazepin-6-yl)propanoate] |  |  |  |  |  |  |  | 94% | 96% | induced undesired off-target degradation |  | 
5 | CCC(C(=O)NCCOCCOCCOCC(=O)N[C@H](C(=O)N1C[C@H](O)C[C@H]1C(=O)NCc1ccc(-c2scnc2C)cc1)C(C)(C)C)C1N=C(c2ccc(Cl)cc2)c2c(sc(C)c2C)-n2c(C)nnc21 (relative stereo) [ET-MZ1 (19), (2S,4R)-1-((2S,17R*)-2-(tert-Butyl)-17-((S*)-4-(4-chlorophenyl)-2,3,9-trimethyl-6H-thieno[3,2-f][1,2,4]triazolo[4,3-a][1,4]diazepin-6-yl)-4,16-dioxo-6,9,12-trioxa-3,15-diazanonadecanoyl)-4-hydroxy-N-(4-(4-methylthiazol-5-yl)benzyl)pyrrolidine-2-carboxamide] |  |  |  |  | 6.5 ± 0.2 | 6.6 ± 0.6 | no hook effect |  |  |  | 0.25 to 0.36 µM | no observable off-target degradation
6 | CC[C@@H](C(=O)OCCOCCCOCC(=O)N[C@H](C(=O)N1C[C@H](O)C[C@H]1C(=O)N[C@@H](C)c1ccc(-c2scnc2C)cc1)C(C)(C)C)[C@@H]1N=C(c2ccc(Cl)cc2)c2c(sc(C)c2C)-n2c(C)nnc21 (relative stereo) [ET-OARV-771 (25), 2-(3-(2-(((S)-1-((2S,4R)-4-Hydroxy-2-(((S)-1-(4-(4-methylthiazol-5-yl)phenyl)ethyl)carbamoyl)pyrrolidin-1-yl)-3,3-dimethyl-1-oxobutan-2-yl)amino)-2-oxoethoxy)propoxy)ethyl (R*)-2-((S*)-4-(4-chlorophenyl)-2,3,9-trimethyl-6H-thieno[3,2-f][1,2,4]triazolo[4,3-a][1,4]diazepin-6-yl)butanoate] |  | > 75% |  |  |  |  | strong onset of the hook effect |  |  |  | 0.013 to 0.016 µM | minor off-target degradation of Brd3
7 | Cc1ncsc1-c1ccc([C@H](C)NC(=O)[C@@H]2C[C@@H](O)CN2C(=O)[C@@H](NC(=O)COCCCOCCOC(=O)C(C)C2N=C(c3ccc(Cl)cc3)c3c(sc(C)c3C)-n3c(C)nnc32)C(C)(C)C)cc1 (relative stereo) [ME-OARV-771 (24), 2-(3-(2-(((S)-1-((2S,4R)-4-Hydroxy-2-(((S)-1-(4-(4-methylthiazol-5-yl)phenyl)ethyl)carbamoyl)pyrrolidin-1-yl)-3,3-dimethyl-1-oxobutan-2-yl)amino)-2-oxoethoxy)propoxy)ethyl (R*)-2-((S*)-4-(4-chlorophenyl)-2,3,9-trimethyl-6H-thieno[3,2-f][1,2,4]triazolo[4,3-a][1,4]diazepin-6-yl)propanoate] |  |  |  |  |  |  |  | 91% | 91% | induced undesired off-target degradation |  | 
8 | CCC(C(=O)OCCOCCOCCOCC(=O)N[C@H](C(=O)N1C[C@H](O)C[C@H]1C(=O)NCc1ccc(-c2scnc2C)cc1)C(C)(C)C)C1N=C(c2ccc(Cl)cc2)c2c(sc(C)c2C)-n2c(C)nnc21 (relative stereo) [ET-OMZ1 (23), (S)-13-((2S,4R)-4-Hydroxy-2-((4-(4-methylthiazol-5-yl)benzyl)carbamoyl)pyrrolidine-1-carbonyl)-14,14-dimethyl-11-oxo-3,6,9-trioxa-12-azapentadecyl (R*)-2-((S*)-4-(4-chlorophenyl)-2,3,9-trimethyl-6H-thieno[3,2-f][1,2,4]triazolo[4,3-a][1,4]diazepin-6-yl)butanoate] |  | > 75% |  |  | 7.9 ± 0.2 | 7.1 | strong onset of the hook effect |  |  |  | 0.013 to 0.08 µM | no observable off-target degradation

Source: PMC8558867, “Development of BromoTag: A “Bump-and-Hole”–PROTAC System to Induce Potent, Rapid, and Selective Degradation of Tagged Target Proteins” (Journal of Medicinal Chemistry, 2021)
